The source of these data is patent US7943586B2, “Antineoplastic agents targeted via glut transporters” (The Trustees of the University of Pennsylvania, priority 2003, dated 2011).

The subject of series [1] is AR42J tumors (pancreatic acinar carcinoma). The series can be described thus: In vivo NIR phased array optical imaging of submerged AR42J tumors in nu/nu mice. To be noted: 3.5 hours after tail vein injection of 200 μL, tumor 1.5 cm deep. Details: species or system mouse. The text has this: In vivo NIR optical imaging system: To image and localize subsurface fluorochrome labeled tumors, an NLR imaging system utilizing diffusion photons (Patterson, M. S.; Chance, B.; Wilson, B. C., Time resolved reflectance and transmittance for the non-invasive measurement of tissue optical properties. Applied Optics 1989, 28, 2331-2336.
Fishkin, J. B.; Gratton, E., Propagation of photon-density waves in strongly scattering media containing an absorbing seni-infinite plane bounded by a straight edge. Journal of the Optical Society of America A 1993, 10, 127-140.) has been developed. The in vivo fluorescence optical imaging system consists of a pair of laser diodes operating at 780 nm. […]
Intes, X.; Chen, Y.; Li, X. D.; Chance, B., Detection limit enhancement of fluorescent heterogeneities in turbid media by dual-interfering excitation. […] A 3-mm-in-diameter fiber bundle collects the fluorescence signal from the fluorophore taken by in the tumor. […] The fluorescence signal is then detected by the photomultiplier tube (PMT) and demodulated by the 50 MD receiver to obtain the amplitude and phase information. […] (Chen, Y.; Zheng, G.; Zhang, Z. H.; Blessington, D.; Zhang, M.; Li, H.; Iiu, Q.; Zhou, L.; Intes, X.; Achilefu, S.; Chance, B., Metabolism-enhanced tumor localization by fluorescence imaging: in vivo animal studies. Optics Letters 2003, 28, (21), 2070-2072). […]

Series [2] is described as follows: Water solubility / miscibility of Pyro-2DG. In kind it is physicochemical.
For another series, the system named is 9L glioma cells. Nature of the series: Confocal microscopy of uptake and localization in 9L glioma cells, with or without D-glucose. It is filed as cell-based, rat. To be noted: for uptake / localization in 9L glioma cells / effect of D-glucose on uptake / localization in 9L glioma cells: 50 μM, 30 min, 37° C.; for effect of D-glucose on uptake / localization in 9L glioma cells: 50 mM D-glucose; for subcellular localization in 9L glioma cells: 100 μM Pyro-2DG with 10 μg/ml Rhodamine-123, 15 min post-incubation. How it is done:
Confocal Microscopic Studies: 9L glioma cells were grown for 5 days in 4-well Lab-Tek chamber slides (Naperville, Ill.). Before the cell experiments, the culture medium was replaced by preincubation medium (medium with 1% (w/v) BSA instead of FBS). The cells were washed three times with preincubation medium (for 15, 15, and 30 min), and cultured in this medium for a further 20 hours. Experiments were started, after two quick washes with preincubation medium, by the addition of preincubation medium containing the indicated amounts of Pyro-2DG and/or D-Glucose. After 30 minutes incubation at 37° C., the cells were washed five times with ice-cold PBS containing 0.8% BSA, two times with PBS alone, and fixed for 20 minutes with 2% formaldehyde in PBS at room temperature. Then the chamber slides were mounted and sealed for confocal microscopic analysis.
9L glioma cells, obtained from Department of Radiation Oncology at University of Pennsylvania, were cultured in Modified Eagle's Medium (NEM) supplemented with 15% newborn calf serum (NCS), 100 U/ml penicillin-streptomycin. Murine melanoma B16 cells, obtained from Dr. Theo van Berkel's laboratory at the University of Leiden, Netherlands, were cultured in Dulbeco's modified Eagle's medium (DMM) supplemented with 10% fetal bovine serum (FBS) and 100 U/n-d penicillin-streptomycin Cells were grown at 37° C. in an atmosphere of 5% CO2 in a humidified incubator. Cells were grown for 5 days in 4-well Lab-Tek chamber slides (Naperville, Ill.) before the experiment. Indicated amounts of NIRF-2DGs with or without D-Glucose and Rbodarninc-123 were incubated with 9L glioma cells/B16 melanoma cells at 37° C. for 30 min after 3 washes with Dulbecco's Phosphate Buffered Saline (D-PBS). After incubation, the cells were washed five times with ice-cold PBS and Fixed for 20 minutes with 2% formaldehyde in PBS at room temperature. Then the chamber slides were mounted and sealed for confocal niicroscopic analysis. Confocal aticroscopic images were obtained with TCS SPII laser scanning confocal microscope (LSCM) (Heidelber, Germany).

The subject of a further series is 9L glioma. It is filed as in vivo, rat. How it is done: Animals: Rat 9L glioma was implanted on the flanks of male Fisher 344 rats (150 -200 g) via subcutaneous injection of 0.1 mL, ˜10^6 9L glioma cells. Within ten days, tumors grew to the desired size of 1 cm in diameter.
After not feeding animals for 24 hours, the rats were anaesthetized via intraperitoneal injection of Ketamine (75 mg/kg) and Xylazine (10 mg/kg). Pyro-2DG (2 mL, concentration: 0.25 mg/mL) was injected via tail vein infusion over a period of 1 hour (dose: 2.5 mg/kg). Thirty minutes later, the rats were anesthetized again and subjected to PDT.
PDT Protocol: A “point treatment” protocol was designed for evaluating PDT response of Pyro-2DG. PDT was carried out using a KTP YAG pumped dye module (Laserscope, San Jose, Calif.) tuned to produce 670 nm light. Light delivery was through a 1 mm fiber to create a treatment spot of 0.96 mm in diameter when the fiber was held closely adjacent to the tumor. The light field was fixed in position at the center of the tumor by mounting the fiber in the center of a circular plate which was glued to the anesthetized animal. The light was delivered at a fluence rate of 75 mW/cm^2 to a total dose of 175 J/cm^2. Laser power output was measured with a power meter (Coherent, Auburn, Calif.).
Fluorescence Imaging of Tumors (Quistorff, B., Haselgrove, J. C., and Chance, B. (1985) High spatial resolution readout of 3-D metabolic organ structure: an automated, low-temperature redox ratio-scanning instrument. Anal. Biochem. 148, 389-400; Gu, Y. Q., Qian, Z. Y., Chen, J. X., Blessington, D., Ramanujam, N., and Chance, B. (2002) High-resolution three-dimensional scanning optical image system for intrinsic and extrinsic contrast agents in tissue. Rev. Sci. Instruments 73, 172-178; Ramanujam, N., Richards-Kortum, R., Thomsen, S., Mahadevan-Jansen, A., Follen M., and Chance B. (2001) Low temperature fluorescence imaging of freeze-trapped human cervical tissues. Opt. Express 8, 335-343): Immediately after PDT, animals were immersed in pre-cooled isopentane (−150° C.) and transferred to liquid nitrogen (−196° C.) 5 minutes later. Tumors were then surgically excised, embedded in a mixture of ethanol-glycerol-water (freeze point: −30° C.), and mounted at low temperature for 3D surface fluorometric scanning. […] The fluorescence signal was automatically digitized and recorded on a PC. The redox ratio of FP/(FP+PN) was calculated with MATLAB.
A “point treatment” protocol for evaluating PDT response of Pyro-2DG was designed. […] Based on the absorption and emission maxima of Pyro-2DG (λex=665 nm; λem=720 nm), the 9L tumor was treated with 670 nm laser light, and a 700 nm long pass filter was incorporated into the 3D fluorescence scanner for collecting the Pyro-2DG fluorescence at 720 nm. […]

Series [3] in a line: Biodistribution in organs of a normal Fisher 344 rat by Cryo-imager. It is filed as in vivo. Conditions: 1 hour after intravenous administration, preliminary. Here is the method: FIG. 9. Pyro-2DG uptake in different organs of a Fisher 344 rat after 1 h tail vein infusion of 2 ml of 2.5 mg/kg Pyro-2DG. Liver (top left), kidney (bottom left), spleen (bottom middle) and brain (bottom right). Images of the frozen liver and of the control liver (no Pyro-2DG), respectively, appear in the top middle and right hand panels.
In order to determine the biodistribution of the Pyro-2DG, a normal Fisher 344 rat was sacrificed and different organs were scanned for Pyro-2DG fluorescence with Cryo-imager 1 hour after Pyro-2DG was intravenously administered.

The mark [4] stands for this setting: after PDT, 670 nm, 75 mW/cm^2, 175 J/cm^2.

With “2-deoxyglucose conjugate of Bacteriopurpurin-18-N-3′-(isothiocyanate)-propylimide [BChlPP-2DG]”, the “enhancement of the tumor region” value in series [1] is reported as “enhanced”.
For `CC1(C)C(/C=C/C=C/C=C/C=C2\N(CCCCS(=O)(=O)O)c3ccc4ccccc4c3C2(C)C)=[N+](CCCCS(=O)(=O)[O-])c2ccc3ccccc3c21` [ICG, Indocyanine Green, reference compound], the “enhancement of the tumor region” value in series [1] is “no significant enhancement”.
In the case of “Pyropheophorbide-2-deoxyglucosamide [Pyro-2DG]”, in series [2] (formulation with detergent (1% Tween 80)), the miscibility with water result is listed as “completely miscible with water”. The water solubility entry in series [2] (without detergent) is recorded as “only partially water-soluble”. Moreover, in the series on 9L glioma cells, the “uptake / localization in 9L glioma cells” value is “localizes within 9L glioma cells”, the “effect of D-glucose on uptake / localization in 9L glioma cells” value was “competitively inhibited by D-glucose” and the “subcellular localization in 9L glioma cells” value is on record as “localize in mitochondria”. Moreover, in the series on 9L glioma (setting [4]), the “NADH fluorescence of irradiated spot” value is on record as “significant decrease” and the “PP fluorescence of irradiated spot” value is “marked increase”. Further, the “redox ratio of the tumor FP/(FP+PN)” value in the series with 9L glioma (after PDT, irradiated region) was “dramatic increase”. Also, in the series on 9L glioma (rat, in vivo), the “effect on mitochondrial activities (redox state) of the tumor” value was “no effect on the mitochondrial activities of the tumor”. For the same compound, in series [3], the accumulation in liver result is “accumulated predominantly in liver”; the “accumulation in spleen and kidney” value is “lesser accumulation in spleen and kidney”; the “crossing of the blood-brain barrier” value is reported as “does not cross the blood-brain barrier”.
Turning to “Rhodamine 123 [Rhodamine-123, reference compound]”, the “subcellular localization in 9L glioma cells” value with 9L glioma cells is “localize in mitochondria”.
Consider pyropheophorbide a [reference compound], for which, in the series on 9L glioma cells, the “uptake / localization in 9L glioma cells” value is reported as “concentration dependent” and the “effect of D-glucose on uptake / localization in 9L glioma cells” value was “not inhibited by D-glucose”.
